In ChEMBL document CHEMBL4819069, “Discovery of multifunctional anti-Alzheimer's agents with a unique mechanism of action including inhibition of the enzyme butyrylcholinesterase and γ-aminobutyric acid transporters” (Eur J Med Chem, 2021):
Activity calls are given as the source filed them. The calls are words filed in the database; no cut-off is given here.

Experiments:
[1] = biological target: T1, GABA transporter 4 (Mus musculus) (UniProt P31650); test: Inhibition of mouse GAT3 expressed in HEK293 cell line assessed as reduction in [3H]GABA uptake at 100 uM incubated for 10 mins relative to control; format: cell-based
T1 sequence (whole entry): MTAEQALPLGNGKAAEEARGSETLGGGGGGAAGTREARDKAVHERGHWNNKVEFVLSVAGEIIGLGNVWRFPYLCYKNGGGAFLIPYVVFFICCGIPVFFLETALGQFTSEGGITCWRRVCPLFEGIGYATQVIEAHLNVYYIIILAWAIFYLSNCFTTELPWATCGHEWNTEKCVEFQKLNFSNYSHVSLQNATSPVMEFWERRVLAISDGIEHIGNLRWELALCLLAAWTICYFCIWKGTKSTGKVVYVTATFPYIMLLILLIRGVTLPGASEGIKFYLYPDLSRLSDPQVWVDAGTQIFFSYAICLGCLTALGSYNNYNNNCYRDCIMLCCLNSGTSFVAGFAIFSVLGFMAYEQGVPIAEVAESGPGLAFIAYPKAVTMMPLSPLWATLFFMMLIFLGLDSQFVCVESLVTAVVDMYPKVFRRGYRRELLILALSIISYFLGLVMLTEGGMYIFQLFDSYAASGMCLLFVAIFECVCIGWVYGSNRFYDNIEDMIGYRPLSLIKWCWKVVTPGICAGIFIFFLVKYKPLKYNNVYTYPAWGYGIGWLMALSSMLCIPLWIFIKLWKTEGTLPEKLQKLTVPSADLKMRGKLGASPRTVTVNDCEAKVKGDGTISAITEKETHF

[2] = Hepatotoxicity in human HepG2 cells at 50 to 100 uM incubated for 72 hrs by MTS assay; format: cell-based; conditions: hepg2, 72 h, dose 50-100 µM
[3] = biological target: Sodium- and chloride-dependent GABA transporter 1 (Mus musculus) (UniProt P31648); test: Inhibition of NO711 binding to mouse GAT1 expressed in HEK cell membranes at 100 uM incubated for 40 mins in presence of NO711 by LC-ESI-MS/MS analysis relative to control; conditions: Membrane
Cholinesterase [4] = biological target: Cholinesterase (Homo sapiens, UniProt P06276)
Sequence of Cholinesterase (Homo sapiens, UniProt P06276) (P06276 whole entry): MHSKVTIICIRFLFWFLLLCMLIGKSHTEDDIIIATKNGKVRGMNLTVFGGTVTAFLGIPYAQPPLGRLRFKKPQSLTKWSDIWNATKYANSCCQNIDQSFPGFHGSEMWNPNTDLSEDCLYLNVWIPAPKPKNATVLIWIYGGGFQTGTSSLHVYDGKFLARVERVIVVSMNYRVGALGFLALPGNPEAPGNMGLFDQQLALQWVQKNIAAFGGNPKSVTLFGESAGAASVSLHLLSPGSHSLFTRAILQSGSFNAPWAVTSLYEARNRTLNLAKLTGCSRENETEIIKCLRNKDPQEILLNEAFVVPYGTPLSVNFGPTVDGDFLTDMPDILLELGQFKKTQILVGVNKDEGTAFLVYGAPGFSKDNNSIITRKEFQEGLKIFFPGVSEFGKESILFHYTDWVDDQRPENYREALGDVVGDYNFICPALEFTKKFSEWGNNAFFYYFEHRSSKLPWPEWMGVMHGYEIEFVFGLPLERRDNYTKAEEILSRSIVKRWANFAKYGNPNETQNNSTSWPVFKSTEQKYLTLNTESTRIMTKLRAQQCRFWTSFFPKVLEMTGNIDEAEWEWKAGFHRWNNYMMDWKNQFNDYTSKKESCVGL
Description: Inhibition of human BuchE using butyrylthiocholine as substrate preincubated for 5 mins followed by substrate addition and measured after 5 mins by Ellman's method

Cytochrome P450 3A4 = Cytochrome P450 3A4 (Homo sapiens, UniProt P08684); test: Inhibition of CYP3A4 (unknown origin) at 10 uM; format: ADME
Sequence of Cytochrome P450 3A4 (P08684 whole entry): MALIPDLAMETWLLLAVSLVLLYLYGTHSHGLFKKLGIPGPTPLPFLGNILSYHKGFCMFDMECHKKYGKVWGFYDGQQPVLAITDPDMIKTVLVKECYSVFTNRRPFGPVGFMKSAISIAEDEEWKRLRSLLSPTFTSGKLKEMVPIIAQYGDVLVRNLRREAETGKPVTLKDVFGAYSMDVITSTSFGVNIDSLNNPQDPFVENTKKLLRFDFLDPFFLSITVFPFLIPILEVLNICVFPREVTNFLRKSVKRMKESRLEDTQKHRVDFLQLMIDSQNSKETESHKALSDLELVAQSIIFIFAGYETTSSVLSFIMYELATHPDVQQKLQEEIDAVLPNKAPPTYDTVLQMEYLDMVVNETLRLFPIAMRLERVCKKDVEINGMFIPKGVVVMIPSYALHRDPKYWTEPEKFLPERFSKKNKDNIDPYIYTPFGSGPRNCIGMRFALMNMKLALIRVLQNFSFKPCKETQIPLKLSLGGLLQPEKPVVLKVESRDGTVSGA

Cholinesterase [5] = biological target: Cholinesterase (Equus caballus, UniProt P81908)
Sequence of Cholinesterase (Equus caballus, UniProt P81908) (P81908 whole entry): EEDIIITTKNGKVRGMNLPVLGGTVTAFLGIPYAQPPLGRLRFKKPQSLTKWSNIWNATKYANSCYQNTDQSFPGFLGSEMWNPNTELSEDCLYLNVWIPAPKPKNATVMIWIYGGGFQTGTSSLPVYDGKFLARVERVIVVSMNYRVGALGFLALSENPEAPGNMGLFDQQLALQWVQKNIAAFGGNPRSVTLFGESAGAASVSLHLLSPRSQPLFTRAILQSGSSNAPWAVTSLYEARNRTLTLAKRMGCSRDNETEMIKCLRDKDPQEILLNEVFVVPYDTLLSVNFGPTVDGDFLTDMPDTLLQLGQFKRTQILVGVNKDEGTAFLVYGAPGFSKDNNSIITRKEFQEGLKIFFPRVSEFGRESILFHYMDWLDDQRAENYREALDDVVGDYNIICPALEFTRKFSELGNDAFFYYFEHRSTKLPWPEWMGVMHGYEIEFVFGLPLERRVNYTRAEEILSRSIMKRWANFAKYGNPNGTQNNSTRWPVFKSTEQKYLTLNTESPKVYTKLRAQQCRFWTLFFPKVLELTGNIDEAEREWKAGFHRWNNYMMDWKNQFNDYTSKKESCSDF
Description: Inhibition of equine serum BuChE using butyrylthiocholine as substrate preincubated for 5 mins followed by substrate addition and measured after 5 mins by Ellman's method

[6] = Neurotoxicity against mouse HT22 cells assessed as cell viability at 30 uM incubated for 24 hrs by MTT assay; format: cell-based, HT-22; conditions: ht-22, 24 h, 30 µM
[7] = biological target: Acetylcholinesterase (Electrophorus electricus) (UniProt O42275); test: Inhibition of electric eel AChE at 10 uM using acetylthiocholine as substrate preincubated for 5 mins followed by substrate addition and measured after 5 mins by Ellman's method relative to control; conditions: time 10.0 min
Sequence of Acetylcholinesterase (Electrophorus electricus) (O42275 24-633 limits assumed): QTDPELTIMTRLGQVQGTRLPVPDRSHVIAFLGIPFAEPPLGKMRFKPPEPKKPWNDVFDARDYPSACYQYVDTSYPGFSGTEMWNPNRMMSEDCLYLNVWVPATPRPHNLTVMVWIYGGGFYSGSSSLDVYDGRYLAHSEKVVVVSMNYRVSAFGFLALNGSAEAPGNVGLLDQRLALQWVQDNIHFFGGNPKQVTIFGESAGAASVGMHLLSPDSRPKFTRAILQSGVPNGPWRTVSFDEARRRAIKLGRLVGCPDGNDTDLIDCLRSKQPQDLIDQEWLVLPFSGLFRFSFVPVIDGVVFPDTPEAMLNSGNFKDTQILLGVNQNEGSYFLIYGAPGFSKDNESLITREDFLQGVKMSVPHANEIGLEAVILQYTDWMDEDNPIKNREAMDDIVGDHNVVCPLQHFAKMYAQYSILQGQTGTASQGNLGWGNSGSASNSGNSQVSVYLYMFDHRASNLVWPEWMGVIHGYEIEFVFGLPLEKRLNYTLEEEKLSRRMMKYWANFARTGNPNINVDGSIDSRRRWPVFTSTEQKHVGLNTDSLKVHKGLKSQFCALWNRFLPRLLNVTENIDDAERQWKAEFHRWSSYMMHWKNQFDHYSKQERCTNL

GABA transporter 4 = biological target: T2, GABA transporter 4 (Mus musculus, UniProt P31650); test: Inhibition of mouse GAT4 expressed in HEK293 cell line assessed as reduction in [3H]GABA uptake incubated for 10 mins; format: cell-based
T2 sequence (P31650 whole entry): T1 sequence (whole entry)

[8] = biological target: Cholinesterase (Equus caballus) (UniProt P81908); test: Noncompetitive inhibition of equine serum BuChE assessed as decrease in Vmax with constant Km using varying concentrations of BTC as substrate by Lineweaver-burk and Cornish-Bowden plot analysis
Sequence of Cholinesterase (Equus caballus) (P81908 whole entry): as the sequence (P81908 whole entry) above

Beta-secretase 1 = Beta-secretase 1 (Homo sapiens, UniProt P56817); conditions: dose 50.0 µM, time 60.0 min
Sequence of Beta-secretase 1 (P56817 whole entry): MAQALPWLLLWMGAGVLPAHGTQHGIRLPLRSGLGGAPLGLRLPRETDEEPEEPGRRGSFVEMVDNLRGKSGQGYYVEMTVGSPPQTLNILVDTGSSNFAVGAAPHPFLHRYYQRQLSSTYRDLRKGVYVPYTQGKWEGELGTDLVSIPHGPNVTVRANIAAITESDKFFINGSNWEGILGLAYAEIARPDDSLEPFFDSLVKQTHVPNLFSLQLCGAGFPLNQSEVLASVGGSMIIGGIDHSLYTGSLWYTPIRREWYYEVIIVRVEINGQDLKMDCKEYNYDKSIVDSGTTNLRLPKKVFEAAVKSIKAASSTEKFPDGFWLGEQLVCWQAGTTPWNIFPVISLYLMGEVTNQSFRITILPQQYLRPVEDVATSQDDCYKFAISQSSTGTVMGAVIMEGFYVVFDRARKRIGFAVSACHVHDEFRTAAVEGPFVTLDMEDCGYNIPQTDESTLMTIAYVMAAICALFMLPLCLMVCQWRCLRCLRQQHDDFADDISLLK

[9] = Neurotoxicity against mouse HT22 cells assessed as cell viability at 10 uM incubated for 24 hrs by MTT assay; format: cell-based, HT-22; conditions: ht-22, 24 h, 10 µM
[10] = biological target: Amyloid-beta precursor protein (Homo sapiens) (UniProt P05067); test: Inhibition of HFIP-pretreated amyloid beta (1 to 42) (unknown origin) aggregation at 10 uM after 36 to 48 hrs by thioflavin-T fluorescence assay relative to control; conditions: time 36-48 hrs
Sequence of Amyloid-beta precursor protein (Homo sapiens) (P05067 whole entry): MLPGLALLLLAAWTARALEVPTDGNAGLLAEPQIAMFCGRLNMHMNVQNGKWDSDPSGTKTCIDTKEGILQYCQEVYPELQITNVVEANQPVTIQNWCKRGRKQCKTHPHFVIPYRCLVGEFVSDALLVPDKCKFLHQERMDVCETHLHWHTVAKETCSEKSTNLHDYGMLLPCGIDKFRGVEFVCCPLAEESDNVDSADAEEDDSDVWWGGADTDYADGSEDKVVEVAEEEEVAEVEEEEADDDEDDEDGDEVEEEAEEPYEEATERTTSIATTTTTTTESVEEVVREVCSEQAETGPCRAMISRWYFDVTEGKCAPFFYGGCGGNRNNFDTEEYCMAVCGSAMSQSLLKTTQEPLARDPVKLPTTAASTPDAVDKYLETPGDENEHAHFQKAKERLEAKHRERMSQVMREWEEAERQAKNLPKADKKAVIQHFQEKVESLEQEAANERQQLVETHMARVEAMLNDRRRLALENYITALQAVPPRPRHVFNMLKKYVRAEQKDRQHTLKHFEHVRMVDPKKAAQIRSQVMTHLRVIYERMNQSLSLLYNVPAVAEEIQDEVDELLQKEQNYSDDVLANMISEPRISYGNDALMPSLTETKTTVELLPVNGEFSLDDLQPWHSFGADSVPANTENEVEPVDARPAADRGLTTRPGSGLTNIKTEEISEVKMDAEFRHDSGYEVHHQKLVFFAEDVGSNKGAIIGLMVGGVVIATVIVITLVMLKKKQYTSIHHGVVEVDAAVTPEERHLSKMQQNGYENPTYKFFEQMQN

[11] = Hepatotoxicity in human HepG2 cells at 10 uM incubated for 72 hrs by MTS assay; format: cell-based; conditions: hepg2, 72 h
[12] = Hepatotoxicity in human HepG2 cells at 1 uM incubated for 72 hrs by MTS assay; format: cell-based; conditions: hepg2, 72 h
[13] = biological target: T3, Sodium- and chloride-dependent GABA transporter 1 (Mus musculus, UniProt P31648); test: Inhibition of mouse GAT1 expressed in HEK293 cell line assessed as reduction in [3H]GABA uptake incubated for 10 mins; format: cell-based
[14] = Metabolic stability in human liver microsomes assessed as parent compound remaining after 120 mins in presence of NADPH regeneration system by UPLC/MS anlaysis; format: ADME, Microsome; conditions: read-out: Stabilty
Cytochrome P450 2D6 = Cytochrome P450 2D6 (Homo sapiens, UniProt P10635); test: Inhibition of CYP2D6 (unknown origin) at 10 uM; format: ADME
[15] = biological target: T4, Sodium- and chloride-dependent GABA transporter 3 (Homo sapiens, UniProt P48066); test: Inhibition of human GAT3 expressed in COS-7 cells assessed as reduction in [2H6]GABA uptake preincubated for 25 mins followed by [2H6]GABA addition and measured after 6 mins by LC-MS/MS analysis; format: cell-based
T4 sequence (P48066 whole entry): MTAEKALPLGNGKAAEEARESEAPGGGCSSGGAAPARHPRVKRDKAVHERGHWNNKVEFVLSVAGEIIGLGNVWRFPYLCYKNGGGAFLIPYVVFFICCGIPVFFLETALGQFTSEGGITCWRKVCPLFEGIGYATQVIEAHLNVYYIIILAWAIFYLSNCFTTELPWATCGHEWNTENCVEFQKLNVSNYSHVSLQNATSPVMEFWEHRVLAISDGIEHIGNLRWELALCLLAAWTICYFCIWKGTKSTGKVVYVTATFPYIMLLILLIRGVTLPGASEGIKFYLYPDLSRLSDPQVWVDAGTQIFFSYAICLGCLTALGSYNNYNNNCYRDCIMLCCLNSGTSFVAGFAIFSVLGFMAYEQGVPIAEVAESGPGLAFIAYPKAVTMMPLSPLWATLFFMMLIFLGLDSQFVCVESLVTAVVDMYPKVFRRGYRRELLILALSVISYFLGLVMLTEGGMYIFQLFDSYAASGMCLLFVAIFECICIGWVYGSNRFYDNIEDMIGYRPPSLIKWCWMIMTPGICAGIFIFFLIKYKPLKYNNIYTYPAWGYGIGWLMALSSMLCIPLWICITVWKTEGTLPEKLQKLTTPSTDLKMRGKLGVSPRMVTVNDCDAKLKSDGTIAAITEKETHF

[16] = biological target: T3, Sodium- and chloride-dependent GABA transporter 1; test: Inhibition of NO711 binding to mouse GAT1 expressed in HEK cell membranes incubated for 40 mins in presence of NO711 by LC-ESI-MS/MS analysis; design: species or system Membrane

CC(C)(C)CNC[C@@H](O)[C@H](Cc1ccccc1)NC(=O)C(c1ccccc1)c1ccccc1
inhibition [1]: 54%
Activity [2]: Toxic
inhibition [3]: 71%
IC50 (Cholinesterase [4]): 0.45 µM
inhibition (INH) (Cytochrome P450 3A4): Active
IC50 (Cholinesterase [5]): 0.1 µM
Activity [6]: Toxic
inhibition [7]: < 10%
IC50 (GABA transporter 4): 30.9 µM
inhibition [8]: Active
inhibition (Beta-secretase 1): 40%
Activity [9]: Non-Toxic
inhibition [10]: 20.5%
Activity [11]: Non-Toxic
Activity [12]: Non-Toxic
IC50 [13]: 25.1 µM
remaining at 2 h [14]: 79.2%
inhibition (INH) (Cytochrome P450 2D6): Active

COc1ccc(C(OCCN2CCC[C@H](C(=O)O)C2)(c2ccc(OC)cc2)c2ccc(OC)cc2C)cc1
IC50 [15]: 3.16 µM

COc1ccc(C(/C=C/CN2CCC[C@H](C(=O)O)C2)(c2ccc(OC)cc2)c2ccc(OC)cc2)cc1
IC50 [16]: 46.8 µM
IC50 [15]: 1.59 µM
